Data as given in PubChem BioAssay (NCI).
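Test compounds were applied to cells in 96-well plates for 48 hours at 5 doses. GI50 marks 50% less growth. TGI is the concentration that stops growth completely.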

Tests used:
Test in all cases: NCI anticancer screen, dose series, 48 h
NCI-H226 lung = tested on: NCI-H226 lung
786-0 renal = tested on: 786-0 renal
UACC-62 melanoma = tested on: UACC-62 melanoma
SK-MEL-28 melanoma = tested on: SK-MEL-28 melanoma
PC-3 prostate = tested on: PC-3 prostate
MDA-MB-231 breast = tested on: MDA-MB-231 breast
OVCAR-4 ovarian = tested on: OVCAR-4 ovarian
MALME-3M melanoma = tested on: MALME-3M melanoma
SF-295 CNS = tested on: SF-295 CNS
UO-31 renal = tested on: UO-31 renal
HL-60(TB) leukemia = tested on: HL-60(TB) leukemia
MDA-MB-435 = tested on: MDA-MB-435
A549 NSCLC = tested on: A549 NSCLC
HCT-116 colon = tested on: HCT-116 colon
MOLT-4 leukemia = tested on: MOLT-4 leukemia
CCRF-CEM leukemia = tested on: CCRF-CEM leukemia
RXF 393 renal = tested on: RXF 393 renal
UACC-257 melanoma = tested on: UACC-257 melanoma
HOP-62 NSCLC = tested on: HOP-62 NSCLC
HOP-92 NSCLC = tested on: HOP-92 NSCLC
SN12C renal = tested on: SN12C renal
COLO 205 colon = tested on: COLO 205 colon
OVCAR-3 ovarian = tested on: OVCAR-3 ovarian
M14 melanoma = tested on: M14 melanoma
IGROV1 ovarian = tested on: IGROV1 ovarian
KM12 colon = tested on: KM12 colon
SNB-75 CNS = tested on: SNB-75 CNS
HS 578T breast = tested on: HS 578T breast
SK-MEL-5 melanoma = tested on: SK-MEL-5 melanoma
NCI-H23 lung = tested on: NCI-H23 lung
T-47D breast = tested on: T-47D breast
LOX IMVI melanoma = tested on: LOX IMVI melanoma
SNB-19 CNS = tested on: SNB-19 CNS
OVCAR-5 ovarian = tested on: OVCAR-5 ovarian
RPMI-8226 leukemia = tested on: RPMI-8226 leukemia
A498 renal = tested on: A498 renal
NCI/ADR-RES ovarian = tested on: NCI/ADR-RES ovarian
SR leukemia = tested on: SR leukemia
EKVX NSCLC = tested on: EKVX NSCLC
OVCAR-8 ovarian = tested on: OVCAR-8 ovarian
HCT-15 colon = tested on: HCT-15 colon
SF-268 CNS = tested on: SF-268 CNS
MCF7 breast = tested on: MCF7 breast
CAKI-1 renal = tested on: CAKI-1 renal
HCC-2998 colon = tested on: HCC-2998 colon
TK-10 renal = tested on: TK-10 renal
DU-145 prostate = tested on: DU-145 prostate
SK-OV-3 ovarian = tested on: SK-OV-3 ovarian
SF-539 CNS = tested on: SF-539 CNS
U251 CNS = tested on: U251 CNS
HT29 colon = tested on: HT29 colon
K-562 leukemia = tested on: K-562 leukemia
BT-549 breast = tested on: BT-549 breast
ACHN renal = tested on: ACHN renal
NCI-H460 lung = tested on: NCI-H460 lung
SW-620 colon = tested on: SW-620 colon
NCI-H522 lung = tested on: NCI-H522 lung
SK-MEL-2 melanoma = tested on: SK-MEL-2 melanoma

Cn1cc(-c2ncnc3ccc(-c4cnc(Cl)c(NS(C)(=O)=O)c4)cc23)c2ccccc21 was tested. Which GI50 (NCI-H226 lung) did it give?
Its GI50 is 1.25 µM.

And the TGI (NCI-H226 lung)?
Its TGI is 74.7 µM.

And the GI50 (786-0 renal)?
The GI50 was 1.44 µM.

What about the TGI (786-0 renal) of the same compound?
The TGI was greater than 100 µM.

What about the GI50 (UACC-62 melanoma) of the same compound?
Its GI50 is 0.181 µM.

What about the TGI (UACC-62 melanoma) of the same compound?
Its TGI is 1.95 µM.

What about the GI50 (SK-MEL-28 melanoma) of the same compound?
Its GI50 is 0.306 µM.

What about the TGI (SK-MEL-28 melanoma) of the same compound?
Its TGI is 6.89 µM.

And the GI50 (PC-3 prostate)?
Its GI50 is 0.361 µM.

And the TGI (PC-3 prostate)?
The TGI was 26.1 µM.

What about the GI50 (MDA-MB-231 breast) of the same compound?
Its GI50 is 1.84 µM.

What about the TGI (MDA-MB-231 breast) of the same compound?
Its TGI is 26.4 µM.

What about the GI50 (OVCAR-4 ovarian) of the same compound?
Its GI50 is 0.921 µM.

What about the TGI (OVCAR-4 ovarian) of the same compound?
Its TGI is 6.99 µM.

And the GI50 (MALME-3M melanoma)?
The GI50 was 0.227 µM.

And the TGI (MALME-3M melanoma)?
Its TGI is 2.48 µM.

What about the GI50 (SF-295 CNS) of the same compound?
The GI50 was 0.298 µM.

What about the TGI (SF-295 CNS) of the same compound?
Its TGI is 3.82 µM.

And the GI50 (UO-31 renal)?
Its GI50 is 0.164 µM.

And the TGI (UO-31 renal)?
The TGI was 5 µM.

What about the GI50 (HL-60(TB) leukemia) of the same compound?
The GI50 was 0.538 µM.

And the TGI (HL-60(TB) leukemia)?
Its TGI is greater than 27.8 µM.

What about the GI50 (MDA-MB-435) of the same compound?
Its GI50 is 0.514 µM.

And the TGI (MDA-MB-435)?
The TGI was 10.8 µM.

What about the GI50 (A549 NSCLC) of the same compound?
The GI50 was 0.814 µM.

What about the TGI (A549 NSCLC) of the same compound?
The TGI was 9.41 µM.

And the GI50 (HCT-116 colon)?
The GI50 was 2.37 µM.

What about the TGI (HCT-116 colon) of the same compound?
Its TGI is 98.1 µM.

And the GI50 (MOLT-4 leukemia)?
The GI50 was 0.491 µM.

And the TGI (MOLT-4 leukemia)?
Its TGI is 4.89 µM.

And the GI50 (CCRF-CEM leukemia)?
Its GI50 is 0.687 µM.

And the TGI (CCRF-CEM leukemia)?
The TGI was greater than 62.7 µM.

And the GI50 (RXF 393 renal)?
The GI50 was 0.435 µM.

What about the TGI (RXF 393 renal) of the same compound?
The TGI was 4.05 µM.

And the GI50 (UACC-257 melanoma)?
Its GI50 is 0.959 µM.

What about the TGI (UACC-257 melanoma) of the same compound?
Its TGI is 7.05 µM.

What about the GI50 (HOP-62 NSCLC) of the same compound?
Its GI50 is 0.791 µM.

And the TGI (HOP-62 NSCLC)?
Its TGI is greater than 22.6 µM.

What about the GI50 (HOP-92 NSCLC) of the same compound?
Its GI50 is 0.0408 µM.

And the TGI (HOP-92 NSCLC)?
Its TGI is 0.634 µM.

What about the GI50 (SN12C renal) of the same compound?
Its GI50 is 0.856 µM.

And the TGI (SN12C renal)?
The TGI was greater than 100 µM.

What about the GI50 (COLO 205 colon) of the same compound?
Its GI50 is 0.829 µM.

What about the TGI (COLO 205 colon) of the same compound?
The TGI was 13.1 µM.

And the GI50 (OVCAR-3 ovarian)?
Its GI50 is 0.617 µM.

What about the TGI (OVCAR-3 ovarian) of the same compound?
Its TGI is 13.8 µM.

What about the GI50 (M14 melanoma) of the same compound?
Its GI50 is 0.976 µM.

And the TGI (M14 melanoma)?
Its TGI is greater than 100 µM.

And the GI50 (IGROV1 ovarian)?
The GI50 was 0.0964 µM.

What about the TGI (IGROV1 ovarian) of the same compound?
The TGI was 0.852 µM.

And the GI50 (KM12 colon)?
The GI50 was 1.46 µM.

And the TGI (KM12 colon)?
The TGI was 19.2 µM.

What about the GI50 (SNB-75 CNS) of the same compound?
Its GI50 is 0.127 µM.

What about the TGI (SNB-75 CNS) of the same compound?
Its TGI is 1.98 µM.

What about the GI50 (HS 578T breast) of the same compound?
Its GI50 is 0.14 µM.

What about the TGI (HS 578T breast) of the same compound?
The TGI was 1.64 µM.

What about the GI50 (SK-MEL-5 melanoma) of the same compound?
Its GI50 is 1.2 µM.

And the TGI (SK-MEL-5 melanoma)?
The TGI was 3.07 µM.

What about the GI50 (NCI-H23 lung) of the same compound?
Its GI50 is 0.903 µM.

What about the TGI (NCI-H23 lung) of the same compound?
The TGI was greater than 52 µM.

And the GI50 (T-47D breast)?
The GI50 was 0.0944 µM.

And the TGI (T-47D breast)?
The TGI was 0.691 µM.

What about the GI50 (LOX IMVI melanoma) of the same compound?
The GI50 was 0.48 µM.

What about the TGI (LOX IMVI melanoma) of the same compound?
Its TGI is 11.8 µM.

And the GI50 (SNB-19 CNS)?
Its GI50 is 1.67 µM.

What about the TGI (SNB-19 CNS) of the same compound?
The TGI was 23.4 µM.

And the GI50 (OVCAR-5 ovarian)?
The GI50 was 0.382 µM.

And the TGI (OVCAR-5 ovarian)?
Its TGI is greater than 100 µM.

What about the GI50 (RPMI-8226 leukemia) of the same compound?
The GI50 was 0.419 µM.

What about the TGI (RPMI-8226 leukemia) of the same compound?
The TGI was 4.17 µM.

What about the GI50 (A498 renal) of the same compound?
The GI50 was 0.207 µM.

And the TGI (A498 renal)?
Its TGI is 1.4 µM.

What about the GI50 (NCI/ADR-RES ovarian) of the same compound?
The GI50 was 1.24 µM.

And the TGI (NCI/ADR-RES ovarian)?
Its TGI is 30.3 µM.

What about the GI50 (SR leukemia) of the same compound?
Its GI50 is 1.24 µM.

And the TGI (SR leukemia)?
Its TGI is greater than 35.9 µM.

And the GI50 (EKVX NSCLC)?
The GI50 was 0.598 µM.

And the GI50 (OVCAR-8 ovarian)?
The GI50 was 1.72 µM.

And the TGI (OVCAR-8 ovarian)?
Its TGI is greater than 100 µM.

What about the GI50 (HCT-15 colon) of the same compound?
Its GI50 is 0.447 µM.

What about the TGI (HCT-15 colon) of the same compound?
The TGI was greater than 71.1 µM.

What about the GI50 (SF-268 CNS) of the same compound?
The GI50 was 1.09 µM.

And the TGI (SF-268 CNS)?
Its TGI is greater than 100 µM.

And the GI50 (MCF7 breast)?
The GI50 was 0.205 µM.

And the TGI (MCF7 breast)?
The TGI was greater than 100 µM.

And the GI50 (CAKI-1 renal)?
Its GI50 is 0.415 µM.

And the TGI (CAKI-1 renal)?
Its TGI is 27 µM.

And the GI50 (HCC-2998 colon)?
Its GI50 is 0.812 µM.

And the TGI (HCC-2998 colon)?
The TGI was 13.3 µM.

And the GI50 (TK-10 renal)?
Its GI50 is 0.505 µM.

What about the TGI (TK-10 renal) of the same compound?
Its TGI is 10.6 µM.

What about the GI50 (DU-145 prostate) of the same compound?
The GI50 was 1.05 µM.

And the TGI (DU-145 prostate)?
Its TGI is greater than 100 µM.

What about the GI50 (SK-OV-3 ovarian) of the same compound?
The GI50 was 0.263 µM.

And the TGI (SK-OV-3 ovarian)?
Its TGI is 2.32 µM.

What about the GI50 (SF-539 CNS) of the same compound?
The GI50 was 0.656 µM.

What about the TGI (SF-539 CNS) of the same compound?
Its TGI is 4.3 µM.

What about the GI50 (U251 CNS) of the same compound?
Its GI50 is 1.65 µM.

What about the TGI (U251 CNS) of the same compound?
The TGI was 23.4 µM.

And the GI50 (HT29 colon)?
The GI50 was 0.541 µM.

And the TGI (HT29 colon)?
Its TGI is greater than 100 µM.

And the GI50 (K-562 leukemia)?
Its GI50 is 2.7 µM.

And the TGI (K-562 leukemia)?
Its TGI is greater than 100 µM.

And the GI50 (BT-549 breast)?
The GI50 was 0.566 µM.

What about the TGI (BT-549 breast) of the same compound?
The TGI was 7.68 µM.

And the GI50 (ACHN renal)?
The GI50 was 0.781 µM.

And the TGI (ACHN renal)?
Its TGI is greater than 100 µM.

What about the GI50 (NCI-H460 lung) of the same compound?
Its GI50 is 0.365 µM.

What about the TGI (NCI-H460 lung) of the same compound?
The TGI was greater than 100 µM.

What about the GI50 (SW-620 colon) of the same compound?
Its GI50 is 1.28 µM.

And the TGI (SW-620 colon)?
Its TGI is greater than 100 µM.

What about the GI50 (NCI-H522 lung) of the same compound?
The GI50 was 1.42 µM.

And the TGI (NCI-H522 lung)?
The TGI was greater than 100 µM.

And the GI50 (SK-MEL-2 melanoma)?
Its GI50 is 1.16 µM.

What about the TGI (SK-MEL-2 melanoma) of the same compound?
The TGI was 4.85 µM.
